Data: ChEMBL document CHEMBL4033771, “Development of Potent Myostatin Inhibitory Peptides through Hydrophobic Residue-Directed Structural Modification” (ACS Med Chem Lett, 2017)
The source made the active and inactive calls. The calls are words filed in the database; no cut-off is given here. Where a SMILES comes first, the peptide text is derived from it. The star is where a group is joined. Acetyl(2-naphthyloxy) = O=C(COc1ccc2ccccc2c1)*

Experiments:
Mus musculus [1] = experiment: Increase in tibialis anterior muscle weight in caveolin 3-deficient limb gridle muscular destrophy 1C mouse model at 20 nmol, im after 28 days relative to control; format: functional
Mus musculus [2] = experiment: Increase in tibialis anterior muscle weight in wild type mouse at 20 nmol, im after 28 days relative to control; format: functional
Mus musculus [3] = experiment: Increase in tibialis anterior muscle weight in mdx mouse at 0.75 mM, im administered on day 0 and 14 measured on day 42 relative to control; format: functional
Mus musculus [4] = experiment: Increase in gastrocnemius muscle weight in wild type ICR mouse at 0.75 mM, im administered on day 0 and 14 measured on day 42 relative to control; format: functional
Mus musculus [5] = experiment: Increase in gastrocnemius muscle fiber size in mdx mouse at 0.75 mM, im administered on day 0 and 14 measured on day 42 by Hematoxylin and Eosin staining based assay; format: functional, organism-based
Mus musculus [6] = experiment: Increase in tibialis anterior muscle weight in wild type ICR mouse at 0.75 mM, im administered on day 0 and 14 measured on day 42 relative to control; format: functional

| Structure (SMILES) | Activity (Mus musculus [1]) [%] | Activity (Mus musculus [2]) [%] | Activity (Mus musculus [3]) | Activity (Mus musculus [4]) | Activity (Mus musculus [5]) | Activity (Mus musculus [6]) |
| --- | --- | --- | --- | --- | --- | --- |
| CC[C@H](C)[C@H](NC(=O)[C@H](C)NC(=O)[C@H](CCC(=O)O)NC(=O)[C@@H](NC(=O)[C@H](CCCNC(=N)N)NC(=O)[C@H](CO)NC(=O)[C@H](Cc1ccc(O)cc1)NC(=O)[C@H](CCCNC(=N)N)NC(=O)[C@@H](NC(=O)[C@H](CC(N)=O)NC(=O)[C@H](CCC(N)=O)NC(=O)[C@H](CCCNC(=N)N)NC(=O)[C@H](Cc1c[nH]c2ccccc12)NC(=O)[C@H](C)NC(=O)[C@@H](N)CS)[C@@H](C)O)[C@@H](C)CC)C(=O)N[C@@H](CCCCN)C(=O)N[C@H](C(=O)N[C@@H](CCC(N)=O)C(=O)N[C@H](C(=O)N[C@@H](CC(C)C)C(=O)N[C@@H](CO)C(=O)N[C@@H](CCCCN)C(=O)N[C@@H](CC(C)C)C(=O)N[C@@H](CCCNC(=N)N)C(=O)N[C@@H](CC(C)C)C(=O)N[C@@H](CCC(=O)O)C(=O)N[C@H](C(=O)N[C@@H](C)C(=O)N1CCC[C@H]1C(N)=O)[C@@H](C)O)[C@@H](C)CC)[C@@H](C)CC (H-CAWRQNTRYSRIEAIKIQILSKLRLETAP-NH2) | 20.6 | 10.6 | – | – | – | – |
| CC[C@H](C)[C@H](NC(=O)[C@H](CCCNC(=N)N)NC(=O)[C@H](CO)NC(=O)[C@H](Cc1ccc(O)cc1)NC(=O)[C@H](CCCNC(=N)N)NC(=O)[C@@H](NC(=O)[C@H](CC(N)=O)NC(=O)[C@H](CCC(N)=O)NC(=O)[C@H](CCCNC(=N)N)NC(=O)COc1ccc2ccccc2c1)[C@@H](C)O)C(=O)N[C@@H](CCC(=O)O)C(=O)N[C@@H](Cc1c[nH]c2ccccc12)C(=O)N[C@H](C(=O)N[C@@H](CCCCN)C(=O)N[C@H](C(=O)N[C@@H](CCC(N)=O)C(=O)N[C@H](C(=O)N[C@H](C(=O)N[C@@H](CO)C(=O)N[C@@H](CCCCN)C(=O)N[C@@H](CC(C)C)C(=O)N[C@@H](CCCNC(=N)N)C(=O)N[C@@H](CC(C)C)C(N)=O)[C@@H](C)CC)[C@@H](C)CC)[C@@H](C)CC)[C@@H](C)CC ({Acetyl(2-naphthyloxy)}-RQNTRYSRIEWIKIQIISKLRL-NH2) | – | – | 10 - 19% | 11 - 35% | Active | 10 - 34% |
